Usually IC50 stands for the concentration needed to halve the response being measured. Low values mean higher potency, high ones lower potency. As usually defined, the EC50 is the concentration at which the effect is half-maximal.

SMILES strings stand for the structures. Like-named read-outs stand apart in the source and are kept apart here.

We go through 19 molecules from patent publication US10696708B2, “Substituted nucleosides, nucleotides and analogs thereof” (Janssen BioPharma, Inc., priority 2013, dated 2020).

One test concerns the target RSV polymerase (Human respiratory syncytial virus A, UniProt P28887). Nature of the test: Standard RSV polymerase assay. Format: biochemical. The procedure:
Standard RSV polymerase assays were conducted in the presence of 3 μL extract of RSV-infected cells in a reaction buffer containing 50 mM tris-acetate pH 8, 120 mM K-acetate, 4.5 mM MgCl2, 5% glycerol, 2 mM EDTA, 50 ug/mL BSA, and 3 mM DTT. Varying concentration of test compounds were used to initiate RNA synthesis for 120 mins at 30° C., and radioactive 33P GTP (15 uCi) was used as tracer. The reaction was stopped by adding 50 mM EDTA, and RNA samples were purified through G-50 size exclusion spin columns and phenol-chloroform extraction. The radio-labeled RNA products were resolved by electrophoresis on a 6% polyacrylamide TBE gel, and visualized and quantitated after being exposed on a phosphorlmager screen. Polymerase inhibition experiments (IC50) were conducted the same way in the presence of increasing concentration of test compounds.

Test [1] has as its system RSV subgenomic replicon 395 HeLa. Nature of the test: RSV subgenomic replicon assay (Renilla luciferase). The test is classed as cell-based. The following applies: human respiratory syncytial virus, 168 h. (In antiviral work, replicon cells carry a viral genome segment that copies itself.)
Another test concerns human PIV type 3. Briefly: Parainfluenza Virus-3 (PIV-3) plaque assay. The test is classed as cell-based.
A further test has as its system human metapneumovirus. Briefly: Human Metapneumovirus (hMPV) TCID50 assay. Format: cell-based.
[2] abbreviates: RSV replicon 395 HeLa cells, 7 days incubation, compounds listed in Table A2 and other tested compounds, read-out: EC50.
Setting [3] is: MA104, MA-104 cells, 72 h infection, viral load by plaque assay, Table B1, read-out: EC50 against PIV-3.
The mark [4] stands for this setting: RSV replicon 395 HeLa cells, 7 days incubation, compounds listed in Table A1, read-out: EC50.
The mark [5] stands for this setting: 168 h, LLC-MK2 cells, 7 days infection, viral load by TCID50 assay, Table C1, read-out: EC50 against human metapneumovirus.

RSV polymerase, sequence (P28887 whole entry, looked up): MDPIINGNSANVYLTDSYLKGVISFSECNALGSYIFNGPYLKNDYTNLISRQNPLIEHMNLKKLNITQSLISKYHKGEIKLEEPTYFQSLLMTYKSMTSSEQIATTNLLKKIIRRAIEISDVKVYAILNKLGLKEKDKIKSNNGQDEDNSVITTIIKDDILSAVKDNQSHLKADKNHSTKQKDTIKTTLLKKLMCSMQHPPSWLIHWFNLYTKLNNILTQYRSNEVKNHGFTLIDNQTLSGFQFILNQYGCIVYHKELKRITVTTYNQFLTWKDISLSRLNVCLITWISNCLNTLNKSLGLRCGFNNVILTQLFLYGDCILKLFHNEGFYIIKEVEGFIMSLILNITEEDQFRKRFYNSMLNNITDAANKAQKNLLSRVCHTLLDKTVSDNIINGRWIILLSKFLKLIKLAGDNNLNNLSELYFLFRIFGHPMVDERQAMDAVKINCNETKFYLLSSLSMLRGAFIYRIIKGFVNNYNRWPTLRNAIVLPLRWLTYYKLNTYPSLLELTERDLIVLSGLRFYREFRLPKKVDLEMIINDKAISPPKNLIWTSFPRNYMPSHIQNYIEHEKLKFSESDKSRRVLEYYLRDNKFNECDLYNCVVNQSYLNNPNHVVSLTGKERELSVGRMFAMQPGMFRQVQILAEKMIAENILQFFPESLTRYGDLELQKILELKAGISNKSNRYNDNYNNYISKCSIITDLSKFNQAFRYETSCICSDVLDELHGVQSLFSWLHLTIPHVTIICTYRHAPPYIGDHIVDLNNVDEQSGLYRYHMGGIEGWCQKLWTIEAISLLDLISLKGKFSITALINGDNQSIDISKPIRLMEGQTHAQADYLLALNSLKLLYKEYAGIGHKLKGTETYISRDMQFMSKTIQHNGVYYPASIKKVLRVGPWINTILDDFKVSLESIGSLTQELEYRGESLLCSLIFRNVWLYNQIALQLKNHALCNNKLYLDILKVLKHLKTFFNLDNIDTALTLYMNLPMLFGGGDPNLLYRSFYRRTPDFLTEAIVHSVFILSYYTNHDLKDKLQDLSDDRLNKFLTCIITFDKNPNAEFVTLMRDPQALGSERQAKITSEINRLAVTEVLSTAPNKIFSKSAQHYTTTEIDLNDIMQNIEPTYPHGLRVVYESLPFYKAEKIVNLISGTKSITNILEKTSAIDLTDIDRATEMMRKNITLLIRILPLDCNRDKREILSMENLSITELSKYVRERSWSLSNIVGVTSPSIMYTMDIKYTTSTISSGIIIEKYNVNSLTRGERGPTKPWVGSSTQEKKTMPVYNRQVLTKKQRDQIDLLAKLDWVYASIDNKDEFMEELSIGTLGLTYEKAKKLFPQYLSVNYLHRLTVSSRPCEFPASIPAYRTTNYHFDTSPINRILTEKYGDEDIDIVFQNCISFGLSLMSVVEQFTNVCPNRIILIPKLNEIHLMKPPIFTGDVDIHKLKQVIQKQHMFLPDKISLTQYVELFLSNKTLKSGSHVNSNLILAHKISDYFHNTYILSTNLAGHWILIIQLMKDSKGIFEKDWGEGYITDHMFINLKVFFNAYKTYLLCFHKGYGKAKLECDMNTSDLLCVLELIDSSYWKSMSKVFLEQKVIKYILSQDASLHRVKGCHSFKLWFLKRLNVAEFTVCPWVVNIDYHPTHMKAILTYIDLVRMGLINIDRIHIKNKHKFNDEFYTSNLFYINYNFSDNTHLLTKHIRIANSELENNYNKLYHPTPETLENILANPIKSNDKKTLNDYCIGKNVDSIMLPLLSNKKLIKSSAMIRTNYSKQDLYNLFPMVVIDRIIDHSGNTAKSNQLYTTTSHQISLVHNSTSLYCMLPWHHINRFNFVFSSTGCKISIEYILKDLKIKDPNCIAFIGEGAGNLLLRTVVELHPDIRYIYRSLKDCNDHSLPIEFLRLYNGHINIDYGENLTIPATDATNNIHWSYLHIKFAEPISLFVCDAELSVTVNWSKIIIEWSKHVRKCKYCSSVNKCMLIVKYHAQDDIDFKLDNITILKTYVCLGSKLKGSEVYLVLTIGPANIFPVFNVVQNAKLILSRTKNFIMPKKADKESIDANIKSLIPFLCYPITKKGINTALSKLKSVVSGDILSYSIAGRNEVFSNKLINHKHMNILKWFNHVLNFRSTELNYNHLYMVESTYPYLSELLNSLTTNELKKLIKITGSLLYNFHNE

At RSV polymerase, `NC[C@]1(COP(=O)(O)OP(=O)(O)OP(=O)(O)O)O[C@@H](n2cnc3c(N)ncnc32)[C@H](F)[C@@H]1O` [Compound 12A] returned an IC50 below 1 µM.

Regarding `CC(C)OC(=O)[C@H](C)NP(=O)(N[C@@H](C)C(=O)OC(C)C)OC[C@@]1(CN=[N+]=[N-])O[C@@H](n2ccc(=O)[nH]c2=O)[C@H](F)[C@@H]1O` [Compound 20A], the EC50 in test [1] (setting [2]) lay within 1 to 50 µM. Molecule `NC[C@]1(COP(=O)(O)OP(=O)(O)OP(=O)(O)O)O[C@@H](n2ccc(=O)[nH]c2=O)[C@H](F)[C@@H]1O` [Compound 5A] yielded an IC50 at RSV polymerase of 1 to 50 µM. With `CCCCC(=O)OC[C@@]1(CN=[N+]=[N-])O[C@@H](n2ccc(N)nc2=O)[C@H](F)[C@@H]1OC(=O)CCCC` [Compound 16A], the EC50 in the test on human PIV type 3 (setting [3]) is below 20 µM; in test [1] (setting [4]), below 1 µM; in the test with human metapneumovirus (setting [5]) it was below 20 µM. As for `[N-]=[N+]=NC[C@]1(COP(=O)(O)OP(=O)(O)OP(=O)(O)O)O[C@@H](n2cnc3c(N)ncnc32)[C@H](F)[C@@H]1O` [Compound 11A], at RSV polymerase, the IC50 is below 1 µM. On to `CC(C)(C)C(=O)OCOP(=O)(OCOC(=O)C(C)(C)C)OC[C@@]1(CN=[N+]=[N-])O[C@@H](n2ccc(=O)[nH]c2=O)[C@H](F)[C@@H]1O` [Compound 28A], for which the EC50 with human PIV type 3 (setting [3]) was below 20 µM; in test [1] (setting [2]) it was 1 to 50 µM; in the test with human metapneumovirus (setting [5]), below 20 µM.

For the molecule `CC(C)OC(=O)OCOP(=O)(OCOC(=O)OC(C)C)OC[C@@]1(CN=[N+]=[N-])O[C@@H](n2ccc(=O)[nH]c2=O)[C@H](F)[C@@H]1O` [Compound 17A], the EC50 with human PIV type 3 (setting [3]) was below 20 µM; in test [1] (setting [2]), 1 to 50 µM; with human metapneumovirus (setting [5]) it was below 20 µM. Regarding `CC(C)(C)C(=O)SCCOP(=O)(OCCSC(=O)C(C)(C)C)OC[C@@]1(CN=[N+]=[N-])O[C@@H](n2ccc(=O)[nH]c2=O)[C@H](F)[C@@H]1O` [Compound 19A], the figures for the EC50 (with human PIV type 3 (setting [3]); in test [1] (setting [2]); in the test on human metapneumovirus (setting [5])) were below 20 µM, 1 to 50 µM and below 20 µM, respectively. As for `[N-]=[N+]=NC[C@]1(COP(=O)(O)OP(=O)(O)OP(=O)(O)O)O[C@@H](n2ccc(=O)[nH]c2=O)[C@H](F)[C@@H]1O` [Compound 3A], the IC50 against RSV polymerase was below 1 µM. In test [1] (HeLa), `CC(C)(CO)C(=O)SCCOP(=O)(OCCSC(=O)C(C)(C)CO)OC[C@@]1(CN=[N+]=[N-])O[C@@H](n2ccc(=O)[nH]c2=O)[C@H](F)[C@@H]1O` [Compound 21A] yielded an EC50 of 1 to 50 µM. As for `NC[C@]1(COP(=O)(O)OP(=O)(O)OP(=O)(O)O)O[C@@H](n2ccc(N)nc2=O)[C@H](F)[C@@H]1O` [Compound 6A], the 50% inhibitory concentration (IC50) at RSV polymerase lay within 1 to 50 µM. Turning to `[N-]=[N+]=NC[C@]1(COP(=O)(O)OP(=O)(O)OP(=O)(O)O)O[C@@H](n2ccc(N)nc2=O)[C@H](F)[C@@H]1O` [Compound 4A], the IC50 on RSV polymerase was below 1 µM. With `[N-]=[N+]=NC[C@]1(CO)O[C@@H](n2ccc(N)nc2=O)[C@H](F)[C@@H]1O` [Compound 2A], the values for the EC50 (in the test on human PIV type 3 (setting [3]); in test [1] (setting [4]); with human metapneumovirus (setting [5])) were below 20 µM, below 1 µM and below 20 µM, respectively. `CC(C)OC(=O)[C@H](C)NP(=O)(OC[C@@]1(CN=[N+]=[N-])O[C@@H](n2ccc(=O)[nH]c2=O)[C@H](F)[C@@H]1O)Oc1ccccc1` (stereo partly drawn) [Compound 18A]: the EC50 was below 20 µM with human PIV type 3 (MA104, 72 h, read-out: EC50 against PIV-3); 1 to 50 µM in test [1] (HeLa); below 20 µM with human metapneumovirus (LLC-MK2, 168 h, read-out: EC50 against human metapneumovirus). `CC(C)OC(=O)C(C)NP(=O)(OCCSC(=O)C(C)(C)CO)OC[C@@]1(CN=[N+]=[N-])O[C@@H](n2ccc(=O)[nH]c2=O)[C@H](F)[C@@H]1O` (stereo partly drawn) [Compound 22A]: the EC50 in test [1] (setting [2]) is 1 to 50 µM.

As for `CC(C)C(=O)OC[C@@]1(CN=[N+]=[N-])O[C@@H](n2ccc(N)nc2=O)[C@H](F)[C@@H]1OC(=O)C(C)C` [Compound 14A], the EC50 was below 20 µM in the test on human PIV type 3 (setting [3]), below 1 µM in test [1] (setting [4]) and below 20 µM in the test with human metapneumovirus (setting [5]). In test [1] (HeLa), `CC(C)OC(=O)CCc1ccccc1OP(=O)(N[C@@H](C)C(=O)OC(C)C)OC[C@@]1(CN=[N+]=[N-])O[C@@H](n2ccc(=O)[nH]c2=O)[C@H](F)[C@@H]1O` (stereo partly drawn) [Compound 23A] gave an EC50 of 1 to 50 µM. With `CCC(=O)OC[C@@]1(CN=[N+]=[N-])O[C@@H](n2ccc(N)nc2=O)[C@H](F)[C@@H]1OC(=O)CC` [Compound 15A], the EC50 with human PIV type 3 (setting [3]) was below 20 µM; in test [1] (setting [4]), below 1 µM; with human metapneumovirus (setting [5]) it was below 20 µM.

On to `[N-]=[N+]=NC[C@]1(CO)O[C@@H](n2cnc3c(=O)[nH]c(N)nc32)[C@H](F)[C@@H]1O` [Compound 7A], for which the EC50 in test [1] (setting [2]) is 1 to 50 µM; in the test with human metapneumovirus (setting [5]), below 20 µM.
